Measurements reported in patent publication US20240368174A1, “Antiviral Heterocyclic Compounds” (Enanta Pharmaceuticals, Inc., priority 2023, published 2024).

The compounds below were run on HMPV clinical isolate A2 strain TN 94-49 (assay: HMPV antiviral assay, Method 1 (LLC-MK2 cells, ATP-Lite)). Conditions: human metapneumovirus, hMPV A2 TN/94-49, LLC-MK2 cells.
Format: cell-based
Protocol: In vitro HMPV antiviral activity was evaluated using the clinical isolate A2 strain TN 94-49 (obtained from Dr. John Williams, Vanderbilt University, Tennessee) and LLC-MK2 cells (ATCC #CCL-7), an immortalized kidney epithelial cell line from Macaca mulatta. Compounds were resuspended in dimethyl sulfoxide (DMSO) at 10 mM, serially diluted and added to a 384-well source plate. Subsequently, the compounds were diluted and transferred onto 384-well assay plates using the Echo-650 automated liquid handling system (Beckman Coulter, Indiana). The test compounds were assessed in duplicate at a top concentration of 2 μM followed by 2.5-fold serial dilutions to give a total of 10 concentration points. DMSO control wells were also included on the assay plates and were either infected or not, acting as positive and negative controls. A2 TN 94-49 virus infections were performed in-suspension with LLC-MK2 cells. The cells were washed twice with PBS and removed from the cell-culture flask with 0.25% trypsin-EDTA (Thermo Fisher Scientific, MA). The trypsin-EDTA was inactivated by resuspending in 2% fetal bovine serum (FBS) and OptiMEM (ThermoFisher Scientific, MA) containing 1% penicillin-streptomycin. Cells were pelleted by centrifuging for 5 minutes at 800 rpm, the supernatant was removed, and cells were re-suspended and washed in PBS plus 100 μg/mL CaCl2). This step was performed twice. Cells were then re-suspended in serum-free (SF)-OptiMEM containing 4 μg/mL TPCK-Trypsin (Sigma Aldrich, MO), 1% penicillin-streptomycin (ThermoFisher Scientific, MA) and 100 μg/mL CaCl2). Cells were counted and seeded at a density of 5,000 cells/well, 12.5 μL/well. Virus infections were done at a multiplicity of infection (MOI) of 0.005 with 12.5 μL added per well. Virus infections were performed in infection media which contained SF-OptiMEM, 100 μg/mL CaCl2) and 1% penicillin-streptomycin. HMPV viral stocks are suspended in infection media+5% glycerol, thus an equal volume of infection media+5% glycerol was added to uninfected wells to equalize the final % glycerol across all wells of the assay plate. The final concentration of TPCK-trypsin was 2 μg/mL. The assay plates were incubated at 37° C., 5% CO2 for 7 days. After 7 days incubation, 12.5 μL of ATP-Lite (PerkinElmer, MA) was added to each well and the raw luminescence values were determined using the Envision 2104 (Perkin Elmer, MA). The average of the raw luminescence values for the cells and virus only positive control wells was subtracted from all conditions tested and the percent cell health was determined by dividing these values by the average of the cells only negative control wells. EC50 values were then calculated by non-linear regression using a four-parameter curve logistic equation. The curve fit model employed was XLFit Dose Response One Site Model 200: y=(A+(B/(1+((x/C)^D)))), where A is the minimum y value, B is the maximum y value, C is the log EC50 value, and D is the slope factor.

`COc1cc(C(=O)NC[C@@](O)(c2ccccc2)c2cc3c(c(-c4ccc5c(c4Cl)OC(F)(F)O5)n2)OC[C@]3(C)C(N)=O)cc2cc(C3CC3)nn12` [Example 254] and `COc1cc(C(=O)NC[C@@](O)(c2ccc(F)cc2)c2cc3c(c(-c4ccc(F)c(Cl)c4Cl)n2)OC[C@]3(C)C(N)=O)cc2cc(Cl)c(C)nc12` [Example 44] cannot be ordered by EC50: < 500 nM for the first, < 500 nM for the second.

Going from `[2H]C([2H])([2H])c1nc2c(OC(F)F)cc(C(=O)NC[C@](O)(c3cc4c(c(-c5cc(Cl)c(F)cc5F)n3)OC[C@]4(C)C(N)=O)C3CC3)cc2cc1Br` [Example 11] to `C[C@]1(C(N)=O)COc2c1cc([C@@](O)(CNC(=O)c1cc(OC(F)F)c3nn(C4CC4)cc3c1)C1CC1)nc2-c1ccc(F)c(F)c1Cl` [Example 39], the EC50 falls from > 500 nM to < 500 nM. The second is the more potent here.

`COc1cc(C(=O)NC[C@@](O)(c2cc3c(c(-c4ccc(F)cc4O)n2)OC[C@]3(C)C(N)=O)C2CC2)cc2cn(C3CC3)nc12` [Example 64] was tested, and the EC50 was > 500 nM.

Each compound was assayed on HMPV clinical isolate A2 strain TN 94-49 (assay: HMPV antiviral assay, Method 2 (LLC-MK2 cells with CP-100-356, ATP-Lite)). Conditions: human metapneumovirus, 168 h; hMPV A2 TN/94-49, LLC-MK2 cells with 4 μM CP-100-356, 7 days, ATP-Lite.
Format: cell-based
How it was run: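 LLC-MK2 rhesus kidney cells (5,000/well) infected in suspension with HMPV A2 TN 94-49 at MOI 0.16, in serum-free medium with final 2 μg/mL TPCK-trypsin and 2 μM CP-100-356. Compounds tested in duplicate from 200 nM, 2.5-fold, 10 points; 7 days at 37 °C. Cell health by ATP-Lite luminescence; EC50 by four-parameter fit.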

Compared with `COc1cccc2c1cnn2-c1nc([C@@](O)(CNC(=O)c2cc(OC)c3nn(C4CC4)cc3c2)C2CC2)cc2c1OC[C@]2(C)C(N)=O` [Example 833], `COc1cccc2c1ccn2-c1nc([C@@](O)(CNC(=O)c2cc(OC)c3nn(C4CC4)cc3c2)C2CC2)cc2c1OC[C@]2(C)C(N)=O` [Example 839] is lower in EC50: > 200 nM for the first, < 200 nM for the second. The second is the more potent here.

Going from `COc1cc(C(=O)NC[C@](O)(c2cc3c(c(-n4ccc5cnccc54)n2)OC[C@]3(C)C(N)=O)C2CC2)cc2cn(C3CC3)nc12` [Example 841] to `COc1cc(C(=O)NC[C@@](O)(c2cc3c(c(-n4ccc5cnccc54)n2)OC[C@]3(C)C(N)=O)C2CC2)cc2cn(C3CC3)nc12` [Example 840], the EC50 rises from < 200 nM to > 200 nM.

`COc1cc(C(=O)NC[C@](O)(c2cc3c(c(-c4ccnc(C(F)F)c4Cl)n2)OC[C@]3(C)C(N)=O)C(F)(F)F)cc2cn(C(F)F)nc12` [Example 797] and `COc1cc(C(=O)NC[C@@](O)(c2ccccc2)c2cc3c(c(-c4ccnc(C)c4Cl)n2)OC[C@]3(C)C(N)=O)cc2cn(C(F)F)nc12` [Example 694] cannot be ordered by EC50: < 200 nM for the first, < 200 nM for the second.

Compared with `COc1cc(C(=O)NC[C@](O)(c2cc3c(c(-c4cccc(C(=O)N(C)C)c4Cl)n2)OC[C@]3(C)C(N)=O)C2CC2)cc2cn(C3CC3)nc12` [Example 809], `C[C@]1(C(N)=O)COc2c1cc([C@@](O)(CNC(=O)c1cc(OC3CC3)c3nn(C4CC4)cc3c1)C1CC1)nc2-n1ncc2c(F)cccc21` [Example 650] is lower in EC50: > 200 nM for the first, < 200 nM for the second. The second is the more potent here.

`COc1cc(C(=O)NC[C@](O)(c2cc3c(c(-n4ncc5c4CCCC5)n2)OC[C@]3(C)C(N)=O)C2CC2)cc2cn(C(F)F)nc12` [Example 641] and `COc1nccc(-c2nc([C@@](O)(CNC(=O)c3cc(OC4CC4)c4nn(C(F)F)cc4c3)c3cccc(F)c3)cc3c2OC[C@]3(C)C(N)=O)c1Cl` [Example 902] cannot be ordered by EC50: > 200 nM for the first, > 200 nM for the second.

`COc1cc(C(=O)NC[C@](O)(c2cc3c(c(-n4ccc5c(F)cccc54)n2)OC[C@]3(C)C(N)=O)C(F)(F)F)cc2sc(N)nc12` [Example 691] and `[2H]C([2H])([2H])c1nc2c(OC)cc(C(=O)NC[C@@](O)(c3ccccc3)c3cc4c(c(-n5ncc6c(F)cccc65)n3)OC[C@]4(C)C(N)=O)cc2s1` [Example 637] cannot be ordered by EC50: < 200 nM for the first, < 200 nM for the second.

In the case of `COc1nccc(-c2nc([C@@](O)(CNC(=O)c3cc(OC)c4nn(C5(F)CC5)cc4c3)C3(F)CC3)cc3c2OC[C@]3(C)C(N)=O)c1Cl` [Example 654], the EC50 is reported as < 200 nM.

Same assay, conditions: human metapneumovirus; hMPV A2 TN/94-49, LLC-MK2 cells with CP-100-356, Method 2

First: C[C@]1(C(N)=O)COc2c1cc([C@@](O)(CNC(=O)c1ccc3nc(C4CC4)oc3c1)c1ccccc1)nc2-c1cc(C(F)(F)F)c(F)cc1F [Example 307]
Second: COc1cc(C(=O)NC[C@@](O)(c2ccccc2)c2cc3c(c(-c4cc(C(F)(F)F)ccc4F)n2)OC[C@]3(C)C(N)=O)cc2oc(C3CC3)nc12 [Example 332]
The EC50 of the first is higher: > 200 nM for the first, < 200 nM for the second. The second is the more potent here.

First: COc1cc(C(=O)NC[C@](O)(c2cc3c(c(-c4cc(F)ncc4F)n2)OC[C@]3(C)C(N)=O)C2CC2)cc2cn(C3CC3)nc12 [Example 382]
Second: COc1cc(C(=O)NC[C@](O)(c2cccc(F)c2)c2cc3c(c(-c4cc(C(F)(F)F)ncc4F)n2)OC[C@]3(C)C(N)=O)cc2cn(C3CC3)nc12 [Example 409]
The EC50 of the first is lower: < 200 nM for the first, > 200 nM for the second. The first is the more potent here.

First: COc1cc(C(=O)NC[C@](O)(c2cccc(F)c2)c2cc3c(c(-c4cc(F)c(F)cc4C(N)=O)n2)OC[C@]3(C)C(N)=O)cc2cn(C3(F)CC3)nc12 [Example 406]
Second: COc1cc(C(=O)NC[C@@](O)(c2cccc(F)c2)c2cc3c(c(-c4ccnc(C(F)F)c4Cl)n2)OC[C@]3(C)C(N)=O)cc2cn(C3(F)CC3)nc12 [Example 566]
The EC50 of the first is higher: > 200 nM for the first, < 200 nM for the second. The second is the more potent here.

`C[C@]1(C(N)=O)COc2c1cc([C@@](O)(CNC(=O)c1cc(OC3CC3)c3ncc(Cl)cc3c1)c1cccc(F)c1)nc2-c1cccc(Cl)c1Cl` [Example 334] and `C[C@]1(C(N)=O)COc2c1cc([C@@](O)(CNC(=O)c1cc(OC3CC3)c3nn(C4(F)CC4)cc3c1)c1cccc(F)c1)nc2-c1cccc(Cl)c1Cl` [Example 339] cannot be ordered by EC50: < 200 nM for the first, < 200 nM for the second.

`COc1cc(C(=O)NC[C@@](O)(c2cccc(F)n2)c2cc3c(c(-c4cc(Cl)c(F)cc4F)n2)OC[C@]3(C)C(N)=O)cc2cn(C(F)F)nc12` [Example 205] and `COc1cc(C(=O)NC[C@](O)(c2cc3c(c(-c4cc(Cl)c(F)cc4F)n2)OC[C@]3(C)C(N)=O)c2ccn(C)n2)cc2cn(C3CC3)nc12` [Example 480] cannot be ordered by EC50: < 200 nM for the first, < 200 nM for the second.

Compared with `C[C@]1(C(N)=O)COc2c1cc([C@@](O)(CNC(=O)c1ccc3nc(-c4ccccc4)oc3c1)c1ccccc1)nc2-c1cc(Cl)c(F)cc1F` [Example 227], `C[C@]1(C(N)=O)COc2c1cc([C@@](O)(CNC(=O)c1ccc3nn(C4CC4)cc3c1)c1ccccc1)nc2-c1cc(Cl)c(F)cc1F` [Example 101] is lower in EC50: > 200 nM for the first, < 200 nM for the second.

`COc1nccc(-c2nc([C@@](O)(CNC(=O)c3cc(OC)c4nc(C5CC5)cn4c3)C(F)(F)F)cc3c2OC[C@]3(C)C(N)=O)c1Cl` [Example 589] and `COc1nccc(-c2nc([C@@](O)(CNC(=O)c3cc(OC)c4nc(C5CC5)cn4c3)C3CC3)cc3c2OC[C@]3(C)C(N)=O)c1Cl` [Example 583] cannot be ordered by EC50: < 200 nM for the first, < 200 nM for the second.

First: Cc1nccc(-c2nc([C@@](O)(CNC(=O)c3cc(Cl)c4nn(C5CC5)cc4c3)C3(F)CC3)cc3c2OC[C@]3(C)C(N)=O)c1Cl [Example 529]
Second: COc1cc(C(=O)NC[C@@](O)(c2ccnc(C#N)c2)c2cc3c(c(-c4cc(Cl)c(F)cc4F)n2)OC[C@]3(C)C(N)=O)cc2cn(C3CC3)nc12 [Example 501]
The EC50 of the first is higher: > 200 nM for the first, < 200 nM for the second.

`C[C@]1(C(N)=O)COc2c1cc([C@@](O)(CNC(=O)c1ccc3nc(C4CC4)oc3c1)c1cccc(F)c1)nc2-c1ccc(F)c(Cl)c1Cl` [Example 312] and `COc1nccc(-c2nc([C@@](O)(CNC(=O)c3cc(OC)c4nc(C5CC5)oc4c3)c3ccccc3)cc3c2OC[C@]3(C)C(N)=O)c1Cl` [Example 556] cannot be ordered by EC50: < 200 nM for the first, < 200 nM for the second.

`COc1cc(C(=O)NC[C@@](O)(c2ccccc2)c2cc3c(c(-c4ccc5c(c4)OC(F)(F)O5)n2)OC[C@]3(C)C(N)=O)cc2oc(C)nc12` [Example 201] and `C[C@]1(C(N)=O)COc2c1cc([C@@](O)(CNC(=O)c1cc(OC3CC3)c3ncc(Cl)cc3c1)c1ccccc1)nc2-c1cc(F)c(F)cc1F` [Example 197] cannot be ordered by EC50: < 200 nM for the first, < 200 nM for the second.

`C[C@]1(C(N)=O)COc2c1cc([C@@](O)(CNC(=O)c1cc(OC3CC3)c3nn(C4(F)CC4)cc3c1)C1CC1)nc2-c1ccc(F)c(Cl)c1` [Example 112] and `COc1cc(C(=O)NC[C@@](O)(c2ccc(F)cc2)c2cc3c(c(-c4ccnc(C(F)(F)F)c4F)n2)OC[C@]3(C)C(N)=O)cc2oc(C3CC3)nc12` [Example 574] cannot be ordered by EC50: < 200 nM for the first, < 200 nM for the second.

`COc1cc(C(=O)NC[C@](O)(c2cc3c(c(-c4ccnc(C(F)(F)F)c4Cl)n2)OC[C@]3(C)C(N)=O)C(F)(F)F)cc2sc(C)nc12` [Example 537] was tested, and the EC50 was < 200 nM.
